Experimental data as given in patent US20130085109A1, “METHODS OF CARDIOVASCULAR PATIENT TREATMENT USING SUBSTANCES SUFFICIENT TO REDUCE ACTIN DEPOLYMERIZATION” (priority 2008, published 2013).

Columns and labels:
[1] = system: gp91phox and p47phox; assay: Western blot for NADPH oxidase expression; type: in vivo, swine; conditions: jasplakinolide, four hours of treatment
Description: (§1) In some experiments (n=3), the carotid arteries were treated with jasplakinolide to stablize the actin. […] The right side vessel 114 was filled with saline and served as control. The reverse or forward flows were then ensured for 2 hrs (for superoxide measurement) or 4 hrs (for NADPH oxidase measurment by western blot) after clamps 116, 118 were released. A low concentration of jasplakinolide was used, which was sufficient to stabilize actin and to avoid possible non-specific effects at high concentration. […]
The artery segments were homogenized in the lysis buffer containing 50 mM glycerophosphate, 100 μM sodium orthovanadate, 2 mM magnesium chloride, 1 mM EGTA, 0.5% Triton X-100, 1 mM DL-dithiothreitol, 20 μM pepstatin, 20 μM leupeptin, 0.1 U/ml aprotinin, and 1 mM phenylmethylsulfonyl fluoride and then incubated on ice for 1 hour. […] The total protein was measured by a BCA kit (Bio-Rad). […]
The NADPH oxidase activity was examined using an enzyme assay in subcellular membrane prepared from vessels with different flow conditions. […] The data are expressed as ratio of enzyme activity measured in vessel from reverse flow (RF) or reverse flow with jasplakinolide (RF-Jasp) treatment vs forward flow (FF). […] The data are expressed as ratio of protein band density of reversed flow sample versus that from forward flow sample.

[2] = system: carotid artery with reverse flow; assay: Superoxide measurement (L012 luminescence) in carotid arteries after in vivo reverse flow with drug treatment; design: species or system swine; conditions: vessel prefilled with 0.1 μM jasplakinolide 10 minutes; reverse flow 2 hrs
Text: To create a full reverse flow, and as part of an exemplary system 100 of the present disclosure, two tubes 102, such as two pieces of silicone tubing, were inserted into the two respective ends of the isolated vessel segment 104 as shown in FIGS. 1A and 1B. In at least one embodiment, tubes 102 are configured to fit within a portion of isolated vessel segment 104, and in at least another embodiment, tubes 102 are configured so surround the ends of vessel segment and are held in place with a connector (not shown). […]
The harvested vessels (vessel segments 104) were cut into small rings at approximately 3 mm in length in 37° C. […] The L012 (100 μM) was added last and the luminescence was recorded for 60 minutes at 1 minute intervals using a plate reader from Perkin Elmer (En vision Xcite Multilabel Reader, Perkin Elmer, Shelton, Conn.) at ultra-luminecent mode. […]
Samples were obtained from carotid arteries with forward (solid bar) or reverse (empty bar) flow (FF or RF, respectively) or reverse flow plus jasplakinolide (Jasp) treatment (lined bar). The basal level of superoxide measured under forward flow condition was taken as 100%, and all other measurements were expressed as percentage to the basal level. Each measurement was performed in triplicate and data were expressed as mean±1SD. […]

[3] = system: carotid artery rings (endothelial cells); assay: Superoxide measurement (L012 luminescence) in carotid artery rings treated in vitro; type: cell-based, swine; conditions: 0.1 μM jasplakinolide; artery samples under normal forward flow
Description: For superoxide measurements, carotid arteries (vessel segments 104) from both sides were quickly removed and placed into a heated (37° C.) chamber filled with HEPES buffered PSS containing (in mM): D-glucose, 5.5; KCl, 4.7; NaCl, 142; HEPES sodium salt, 2.7; MgSO4, 1.17; CaCl2, 2.79; at pH 7.4. For NADPH oxidase activity assays or protein expression measurements by western blot, the left and right carotid arteries were removed and saved in a −80° C. freezer until analysis.
The harvested vessels (vessel segments 104) were cut into small rings at approximately 3 mm in length in 37° C. HEPES PSS buffer. The rings were first transferred into […] with HEPES-PSS and incubated at 37° C. for 5 minutes. Various compounds [cytochalason D, latrunculin B, jasplakinolide, and phorbol 2-myrisate 13-acetate (PMA)] were then added into each well for treatment. The L012 (100 μM) was added last and the luminescence was recorded for 60 minutes at 1 minute intervals using a plate reader from Perkin Elmer (En vision Xcite Multilabel Reader, Perkin Elmer, Shelton, Conn.) at ultra-luminecent mode. The total reaction volume was 200 μl. After each recording, the sample rings were air dried and weighed. Each condition was tested in triplicate. To remove the endothelial cells, the vessel ring was gently rubbed against the tip of a pair of forceps.
Basal superoxide production was detected in the carotid artery (vessel segment 104) samples obtained from control animals with forward blood flow as shown in FIG. 2A. Rings were incubated with or without treatments of cytochalasin D (cyt D), latrunculin (Latru) or jasplakinolide (Jasp) and the superoxide production were recorded using plate reader at ultrasensitive mode for luminescence to generate the results shown in FIG. 2A. The luminescence recorded from rings without treatment was considered at base level and taken as 100%. The luminescence recorded under other conditions was expressed as percentage of base level. The superoxide production induced by PMA was used as positive control as identified in FIG. 2B. Each condition was tested in triplicate from each animal. The significance of increased superoxide production was test using ANOVA (p=0.004 for cytochalasin D, n=10 and p=0.044 for Latrucillin, n=3), and the data are mean±1SD.

[4] = system: NADPH oxidase; assay: NADPH oxidase activity assay in subcellular membrane preparations of vessels; type: in vivo, swine; conditions: jasplakinolide treatment (0.1 μM prefill)
Description: as §1
Stored samples were placed in ice cold lysis buffer containing 20 mM KH2PO4, 1 mM EGTA and protease inhibitor cocktail (Sigma-Aldrich, St. Louis, Mo.) and homogenized with an electric homogenizer (Power Gen 35, Fisher Scientific) for 20 seconds each. […] The enzyme activity was determined in 200 μl assay buffer at pH7.4 containing the following (in mM): HEPES, 25; NaCl, 120; KCl, 5.9; MgSO4, 1.2; CaCl2, 1.75; glucose, 11; β-NADPH, 0.1; and L012, 0.1. The reaction started by adding 10 μL of homogenate, and the luminescence was measured every 15 seconds for 5 minutes by Perkin Elmer plate reader at ultra-sensitive mode. The protein concentration was determined by BCA kit (Bio-Rad) and the results of enzyme activity were standardized to protein level of each sample. […]

Which “expression of NADPH oxidase subunits gp91phox and p47phox” value [1] does the source give for C/C1=C\[C@H](C)C[C@H](C)OC(=O)C[C@H](c2ccc(O)cc2)NC(=O)[C@@H](Cc2c(Br)[nH]c3ccccc23)N(C)C(=O)[C@H](C)NC(=O)[C@@H](C)C1 [jasplakinolide] here?
The value was “not changed”.

And the “increase of superoxide production on reversed blood flow” value [2]?
The value was “prevented”.

What about the “superoxide level vs untreated samples” value [3] of the same molecule?
Its value is “not changed”.

What about the “NADPH oxidase activity in vessel with reversed flow vs untreated vessel” value [4] of the same molecule?
The value was “decreased”.
